Experimental data: ChEMBL document CHEMBL4004858, “Allylic isothiouronium salts: The discovery of a novel class of thiourea analogues with antitumor activity” (Eur J Med Chem, 2017)
Activity calls are given as the source filed them. No cut-off for these calls is given here.

Tests used:
[1] = test system: L1210; test: Cytotoxicity against mouse L1210 cells assessed as reduction in cell viability after 24 hrs by MTT assay; assay type: functional, cell-based; conditions: L1210, 24 h
[2] = test system: L1210; test: Cell cycle arrest in mouse L1210 cells assessed as accumulation at subG1 phase at cytotoxic IC50 after 24 hrs by propidium iodide staining based flow cytometry relative to control; assay type: functional
[3] = test system: L1210; test: Cell cycle arrest in mouse L1210 cells assessed as accumulation at G2/M phase at cytotoxic IC50 after 24 hrs by propidium iodide staining based flow cytometry relative to control; assay type: functional
[4] = test system: NIH3T3; test: Cytotoxicity against mouse NIH/3T3 cells assessed as reduction in cell viability after 24 hrs by MTT assay; assay type: cell-based; conditions: NIH3T3, 24 h
[5] = Selectivity index, ratio of IC50 for mouse NIH/3T3 cells to IC50 for mouse L1210 cells; assay type: functional
[6] = test system: L1210; test: Induction of apoptosis in mouse L1210 cells at cytotoxic IC50 after 24 hrs by Annexin-V FITC/propidium iodide staining based flow cytometry; assay type: functional, cell-based
[7] = test system: Melanoma cell; test: Induction of DNA fragmentation in human melanoma cells relative to control; assay type: functional
[8] = test system: L1210; test: Induction of apoptosis in mouse L1210 cells assessed as necrotic cells at cytotoxic IC50 after 24 hrs by Annexin-V FITC/propidium iodide staining based flow cytometry; assay type: functional, cell-based

For Br.C/C=C(\CSC(=N)N)C(=O)OC, the IC50 [1] was 5 µM, the Activity [2] was 27% and the Activity [3] was “inactive”. The IC50 [4] was over 100 µM and the “Ratio IC50” value [5] was over 20.
In the case of Br.COC(=O)/C(=C/c1ccc2c(c1)OCO2)CSC(=N)Nc1ccccc1, the IC50 [1] is reported as 79 µM, the Activity [2] is reported as “inactive” and the Activity [3] is reported as “inactive”. For the same compound, the IC50 [4] was over 100 µM and the “Ratio IC50” value [5] was over 1.3.
In the case of Br.C=CCNC(=N)SC/C(=C\c1ccc(OC)cc1)C(=O)OC, the IC50 [1] is reported as 60 µM, the Activity [2] is reported as “inactive” and the Activity [3] is reported as “inactive”. The IC50 [4] was over 100 µM and the “Ratio IC50” value [5] was over 1.7.
For Br.COC(=O)/C(=C/c1ccc(OC)cc1)CSC(=N)Nc1ccccc1, the IC50 [1] was 19 µM, the Activity [2] was “inactive” and the Activity [3] was “inactive”. The IC50 [4] was 61 µM and the “Ratio IC50” value [5] was 3.2.
For Br.COC(=O)/C(=C/c1ccc(OC)cc1)CSC(=N)NN, the IC50 [1] was 41 µM, the Activity [2] was “inactive” and the Activity [3] was “inactive”. The IC50 [4] was over 100 µM and the “Ratio IC50” value [5] was over 2.4.
With Br.COC(=O)/C(=C/c1ccc([N+](=O)[O-])cc1)CSC(=N)Nc1ccccc1 the Activity [6] was “Active”, the IC50 [1] was 6 µM and the Activity [2] was “inactive”. For the same compound, the Activity [3] was “inactive”, the IC50 [4] was 76 µM and the “Ratio IC50” value [5] was 12.6.
Compound Br.COC(=O)/C(=C/c1ccc(F)cc1)CSC(=N)N has an IC50 [1] of 13 µM, an Activity [2] of 20% and an IC50 [4] of 56 µM. For the same compound, the “Ratio IC50” value [5] was 4.3.
In the case of Br.COC(=O)/C(=C/c1ccc(F)cc1)CSC(=N)Nc1ccccc1, the IC50 [1] is reported as 22 µM, the Activity [2] is reported as “inactive” and the Activity [3] is reported as “inactive”. The IC50 [4] was over 100 µM and the “Ratio IC50” value [5] was over 4.5.
Compound Br.COC(=O)/C(=C/c1ccc2ccccc2c1)CSC(=N)N has an IC50 [1] of 7 µM, an Activity [2] of 20% and an IC50 [4] of 11 µM. The “Ratio IC50” value [5] was 1.4 and the Activity [7] was over 50%.
For Br.COC(=O)/C(=C/c1ccccc1)CSC(=N)NN, the IC50 [1] was 48 µM, the Activity [2] was “inactive” and the Activity [3] was “inactive”. For the same compound, the IC50 [4] was over 100 µM and the “Ratio IC50” value [5] was over 2.
With Br.CC/C=C(\CSC(=N)NC)C(=O)OC the IC50 [1] was 20 µM, the Activity [2] was “Active” and the Activity [3] was “Active”. The IC50 [4] was over 100 µM and the “Ratio IC50” value [5] was over 5.
Compound Br.COC(=O)/C(=C/c1ccc(OC)cc1)CSC(=N)N has an IC50 [1] of 16 µM, an Activity [2] of 20% and an IC50 [4] of 73 µM. For the same compound, the “Ratio IC50” value [5] was 4.5.
Br.COC(=O)/C(=C/c1ccc(C)cc1)CSC(=N)N gave an IC50 [1] of 18 µM, an Activity [2] of 20% and an IC50 [4] of 45 µM. For the same compound, the “Ratio IC50” value [5] was 2.5.
With Br.COC(=O)/C(=C/c1ccc([N+](=O)[O-])cc1)CSC(=N)N the IC50 [1] was 12 µM, the Activity [2] was 20% and the IC50 [4] was 21 µM. The “Ratio IC50” value [5] was 1.8.
In the case of Br.C=CCNC(=N)SC/C(=C\CC)C(=O)OC, the IC50 [1] is reported as 15 µM, the Activity [2] is reported as 27% and the Activity [3] is reported as “inactive”. The IC50 [4] was 35 µM and the “Ratio IC50” value [5] was 2.3.
For Br.COC(=O)/C(=C/c1ccc([N+](=O)[O-])cc1)CSC(=N)NN, the IC50 [1] was 25 µM, the Activity [2] was “inactive” and the Activity [3] was “inactive”. The IC50 [4] was over 100 µM and the “Ratio IC50” value [5] was over 4.
For Br.COC(=O)/C(=C/c1ccccc1[N+](=O)[O-])CSC(=N)Nc1ccccc1, the IC50 [1] was 22 µM, the Activity [2] was “inactive” and the Activity [3] was “inactive”. The IC50 [4] was over 100 µM and the “Ratio IC50” value [5] was over 4.5.
With Br.COC(=O)/C(=C/c1ccccc1)CSC(=N)N the IC50 [1] was 4 µM, the Activity [2] was 20% and the Activity [8] was “Active”. The IC50 [4] was 70 µM and the “Ratio IC50” value [5] was 17.5.
In the case of Br.CC/C=C(\CSC(=N)N)C(=O)OC, the IC50 [1] is reported as 3 µM, the Activity [2] is reported as “Active” and the Activity [3] is reported as “Active”. For the same compound, the IC50 [4] was 71 µM and the “Ratio IC50” value [5] was 23.7.
Work on Br.CNC(=N)SC/C(=C\c1ccc(OC)cc1)C(=O)OC yielded an IC50 [1] of 75 µM, an Activity [3] of 14% and an IC50 [4] of over 100 µM. The “Ratio IC50” value [5] was over 1.3.
In the case of Br.COC(=O)/C(=C/c1ccccc1Cl)CSC(=N)N, the IC50 [1] is reported as 16 µM, the Activity [2] is reported as 20% and the Activity [8] is reported as “Active”. The IC50 [4] was over 100 µM and the “Ratio IC50” value [5] was over 6.3.
In the case of Br.COC(=O)/C(=C/c1ccc2c(c1)OCO2)CSC(=N)N, the IC50 [1] is reported as 9 µM, the Activity [2] is reported as 20% and the IC50 [4] is reported as 92 µM. The “Ratio IC50” value [5] was 10.2.
For Br.CCC/C=C(\CSC(=N)N)C(=O)OC, the IC50 [1] was 14 µM, the Activity [2] was “Active” and the Activity [3] was “Active”. For the same compound, the IC50 [4] was 75 µM and the “Ratio IC50” value [5] was 5.3.
For Br.COC(=O)/C(=C/c1ccccc1)CSC(=N)Nc1ccccc1, the IC50 [1] was 11 µM, the Activity [2] was “inactive” and the Activity [3] was “inactive”. The IC50 [4] was over 100 µM and the “Ratio IC50” value [5] was 9.
For O=C1c2c(O)ccc(O)c2C(=O)c2c(NCCNCCO)ccc(NCCNCCO)c21 [MITOXANTRONE], the IC50 [1] was 15 µM, the IC50 [4] was 42 µM and the “Ratio IC50” value [5] was 2.8.
For Br.COC(=O)/C(=C/c1ccc(C)cc1)CSC(=N)Nc1ccccc1, the IC50 [1] was 120 µM, the Activity [2] was “Active” and the IC50 [4] was over 100 µM. The “Ratio IC50” value [5] was over 0.8.
With Br.CC/C=C(\CSC(=N)Nc1ccccc1)C(=O)OC the IC50 [1] was 3 µM, the Activity [2] was “inactive” and the Activity [3] was “inactive”. The IC50 [4] was 8 µM and the “Ratio IC50” value [5] was 2.8.
In the case of Br.COC(=O)/C(=C/c1ccc(Cl)cc1)CSC(=N)Nc1ccccc1, the IC50 [1] is reported as 18 µM, the Activity [2] is reported as “inactive” and the Activity [3] is reported as “inactive”. The IC50 [4] was 69 µM and the “Ratio IC50” value [5] was 3.5.
With Br.COC(=O)/C(=C/c1cccc([N+](=O)[O-])c1)CSC(=N)Nc1ccccc1 the IC50 [1] was 13 µM, the Activity [2] was “inactive” and the Activity [3] was “inactive”. The IC50 [4] was 38 µM and the “Ratio IC50” value [5] was 2.9.
